Data taken from PubChem BioAssay (NCI).
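Interpolation was linear, between the two tested concentrations surrounding the appropriate level; five concentrations were tested over 48 hours in 96-well plates. Abbreviation: GI50, concentration required for 50% inhibition of growth. At the TGI there is no net growth.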

Legend:
Assay in all cases: NCI-60 cell line screen, 48 h; in the data active = GI50 below about 0.43 µM; inactive = the rest
EKVX NSCLC = tested on: EKVX NSCLC
MDA-MB-435 = tested on: MDA-MB-435
SN12C renal = tested on: SN12C renal
HCC-2998 colon = tested on: HCC-2998 colon
HOP-62 NSCLC = tested on: HOP-62 NSCLC
M14 melanoma = tested on: M14 melanoma
MCF7 breast = tested on: MCF7 breast
OVCAR-4 ovarian = tested on: OVCAR-4 ovarian
SNB-19 CNS = tested on: SNB-19 CNS
MALME-3M melanoma = tested on: MALME-3M melanoma
786-0 renal = tested on: 786-0 renal
UACC-62 melanoma = tested on: UACC-62 melanoma
CCRF-CEM leukemia = tested on: CCRF-CEM leukemia
HCT-116 colon = tested on: HCT-116 colon
NCI-H460 lung = tested on: NCI-H460 lung
HT29 colon = tested on: HT29 colon
SK-MEL-5 melanoma = tested on: SK-MEL-5 melanoma
ACHN renal = tested on: ACHN renal
BT-549 breast = tested on: BT-549 breast
SK-MEL-28 melanoma = tested on: SK-MEL-28 melanoma
U251 CNS = tested on: U251 CNS
KM12 colon = tested on: KM12 colon
TK-10 renal = tested on: TK-10 renal
MOLT-4 leukemia = tested on: MOLT-4 leukemia
HL-60(TB) leukemia = tested on: HL-60(TB) leukemia
OVCAR-5 ovarian = tested on: OVCAR-5 ovarian
COLO 205 colon = tested on: COLO 205 colon
NCI-H23 lung = tested on: NCI-H23 lung
HS 578T breast = tested on: HS 578T breast
RXF 393 renal = tested on: RXF 393 renal
PC-3 prostate = tested on: PC-3 prostate
RPMI-8226 leukemia = tested on: RPMI-8226 leukemia
MDA-N = tested on: MDA-N
NCI/ADR-RES ovarian = tested on: NCI/ADR-RES ovarian
MDA-MB-231 breast = tested on: MDA-MB-231 breast
HCT-15 colon = tested on: HCT-15 colon
HOP-92 NSCLC = tested on: HOP-92 NSCLC
SW-620 colon = tested on: SW-620 colon
T-47D breast = tested on: T-47D breast
SR leukemia = tested on: SR leukemia
SNB-75 CNS = tested on: SNB-75 CNS
OVCAR-8 ovarian = tested on: OVCAR-8 ovarian
NCI-H226 lung = tested on: NCI-H226 lung
A549 NSCLC = tested on: A549 NSCLC
SF-539 CNS = tested on: SF-539 CNS
SF-268 CNS = tested on: SF-268 CNS
SK-OV-3 ovarian = tested on: SK-OV-3 ovarian
NCI-H522 lung = tested on: NCI-H522 lung
UACC-257 melanoma = tested on: UACC-257 melanoma
IGROV1 ovarian = tested on: IGROV1 ovarian
DU-145 prostate = tested on: DU-145 prostate
SF-295 CNS = tested on: SF-295 CNS
OVCAR-3 ovarian = tested on: OVCAR-3 ovarian
CAKI-1 renal = tested on: CAKI-1 renal
SK-MEL-2 melanoma = tested on: SK-MEL-2 melanoma
UO-31 renal = tested on: UO-31 renal
LOX IMVI melanoma = tested on: LOX IMVI melanoma
K-562 leukemia = tested on: K-562 leukemia

O=C(CN=C(CN(c1ccccc1)c1ccccc1)Oc1c(Cl)cc(Cl)cc1Cl)N1c2ccccc2Sc2ccccc21
27.4 µM: TGI (RXF 393 renal)
57.2 µM: TGI (HOP-92 NSCLC)
> 100 µM: TGI (EKVX NSCLC) | TGI (MDA-MB-435) | TGI (SN12C renal) | TGI (HCC-2998 colon) | TGI (HOP-62 NSCLC) | TGI (M14 melanoma) | TGI (MCF7 breast) | TGI (OVCAR-4 ovarian) | TGI (SNB-19 CNS) | TGI (MALME-3M melanoma) | TGI (786-0 renal) | TGI (UACC-62 melanoma) | TGI (CCRF-CEM leukemia) | TGI (HCT-116 colon) | TGI (NCI-H460 lung) | TGI (HT29 colon) | TGI (SK-MEL-5 melanoma) | TGI (ACHN renal) | TGI (BT-549 breast) | TGI (SK-MEL-28 melanoma) | TGI (U251 CNS) | TGI (KM12 colon) | TGI (TK-10 renal) | TGI (MOLT-4 leukemia) | TGI (HL-60(TB) leukemia) | TGI (OVCAR-5 ovarian) | TGI (COLO 205 colon) | TGI (NCI-H23 lung) | TGI (HS 578T breast) | TGI (PC-3 prostate) | TGI (RPMI-8226 leukemia) | TGI (MDA-N) | TGI (NCI/ADR-RES ovarian) | TGI (MDA-MB-231 breast) | TGI (HCT-15 colon) | TGI (SW-620 colon) | TGI (T-47D breast) | TGI (SR leukemia) | TGI (SNB-75 CNS) | TGI (OVCAR-8 ovarian) | TGI (NCI-H226 lung) | TGI (A549 NSCLC) | TGI (SF-539 CNS) | TGI (SF-268 CNS) | TGI (SK-OV-3 ovarian) | TGI (NCI-H522 lung) | TGI (UACC-257 melanoma) | TGI (IGROV1 ovarian) | TGI (DU-145 prostate) | TGI (SF-295 CNS) | TGI (OVCAR-3 ovarian)

CCOC(=O)c1nc2cc(C(F)(F)F)ccc2nc1Oc1ccc(OC)cc1
> 100 µM: TGI (EKVX NSCLC) | TGI (MDA-MB-435) | TGI (SN12C renal) | TGI (HCC-2998 colon) | TGI (M14 melanoma) | TGI (MCF7 breast) | TGI (OVCAR-4 ovarian) | TGI (SNB-19 CNS) | TGI (MALME-3M melanoma) | TGI (786-0 renal) | TGI (UACC-62 melanoma) | TGI (CCRF-CEM leukemia) | TGI (HCT-116 colon) | TGI (NCI-H460 lung) | TGI (CAKI-1 renal) | TGI (SK-MEL-5 melanoma) | TGI (ACHN renal) | TGI (BT-549 breast) | TGI (SK-MEL-2 melanoma) | TGI (SK-MEL-28 melanoma) | TGI (U251 CNS) | TGI (KM12 colon) | TGI (TK-10 renal) | TGI (MOLT-4 leukemia) | TGI (HL-60(TB) leukemia) | TGI (OVCAR-5 ovarian) | TGI (COLO 205 colon) | TGI (HS 578T breast) | TGI (RXF 393 renal) | TGI (PC-3 prostate) | TGI (UO-31 renal) | TGI (RPMI-8226 leukemia) | TGI (LOX IMVI melanoma) | TGI (MDA-N) | TGI (K-562 leukemia) | TGI (NCI/ADR-RES ovarian) | TGI (MDA-MB-231 breast) | TGI (HCT-15 colon) | TGI (HOP-92 NSCLC) | TGI (SW-620 colon) | TGI (T-47D breast) | TGI (SR leukemia) | TGI (SNB-75 CNS) | TGI (OVCAR-8 ovarian) | TGI (NCI-H226 lung) | TGI (A549 NSCLC) | TGI (SF-539 CNS) | TGI (SF-268 CNS) | TGI (NCI-H522 lung) | TGI (UACC-257 melanoma) | TGI (IGROV1 ovarian) | TGI (DU-145 prostate) | TGI (SF-295 CNS) | TGI (OVCAR-3 ovarian)

Cc1nn(C(=O)c2ccccc2O)c2c1C(c1ccccc1O)SC(N)=N2 (stereo not given)
5.02 µM: TGI (HL-60(TB) leukemia)
8.96 µM: TGI (NCI-H226 lung)
9.01 µM: TGI (CCRF-CEM leukemia)
8.19 µM: TGI (RPMI-8226 leukemia)
3.53 µM: TGI (SF-539 CNS)
5.4 µM: TGI (SR leukemia)
> 10 µM: TGI (EKVX NSCLC) | TGI (MDA-MB-435) | TGI (SN12C renal) | TGI (HCC-2998 colon) | TGI (HOP-62 NSCLC) | TGI (M14 melanoma) | TGI (MCF7 breast) | TGI (OVCAR-4 ovarian) | TGI (MALME-3M melanoma) | TGI (786-0 renal) | TGI (UACC-62 melanoma) | TGI (HCT-116 colon) | TGI (NCI-H460 lung) | TGI (CAKI-1 renal) | TGI (HT29 colon) | TGI (SK-MEL-5 melanoma) | TGI (ACHN renal) | TGI (BT-549 breast) | TGI (SK-MEL-2 melanoma) | TGI (SK-MEL-28 melanoma) | TGI (U251 CNS) | TGI (KM12 colon) | TGI (TK-10 renal) | TGI (MOLT-4 leukemia) | TGI (OVCAR-5 ovarian) | TGI (COLO 205 colon) | TGI (NCI-H23 lung) | TGI (HS 578T breast) | TGI (RXF 393 renal) | TGI (PC-3 prostate) | TGI (LOX IMVI melanoma) | TGI (MDA-N) | TGI (K-562 leukemia) | TGI (NCI/ADR-RES ovarian) | TGI (MDA-MB-231 breast) | TGI (HCT-15 colon) | TGI (HOP-92 NSCLC) | TGI (SW-620 colon) | TGI (T-47D breast) | TGI (SNB-75 CNS) | TGI (OVCAR-8 ovarian) | TGI (A549 NSCLC) | TGI (SF-268 CNS) | TGI (SK-OV-3 ovarian) | TGI (NCI-H522 lung) | TGI (UACC-257 melanoma) | TGI (IGROV1 ovarian) | TGI (DU-145 prostate) | TGI (SF-295 CNS) | TGI (OVCAR-3 ovarian)

COc1cccc(/C=C/c2ccc(S(N)(=O)=O)cc2)c1
80.1 µM: TGI (HS 578T breast)
58.9 µM: TGI (UACC-62 melanoma)
27.5 µM: TGI (OVCAR-3 ovarian)
19.8 µM: TGI (RPMI-8226 leukemia)
42.8 µM: TGI (COLO 205 colon)
35.8 µM: TGI (HOP-92 NSCLC)
79.6 µM: TGI (MDA-MB-231 breast)
> 100 µM: TGI (EKVX NSCLC) | TGI (MDA-MB-435) | TGI (HOP-62 NSCLC) | TGI (M14 melanoma) | TGI (MCF7 breast) | TGI (OVCAR-4 ovarian) | TGI (SNB-19 CNS) | TGI (MALME-3M melanoma) | TGI (CCRF-CEM leukemia) | TGI (NCI-H460 lung) | TGI (CAKI-1 renal) | TGI (HT29 colon) | TGI (ACHN renal) | TGI (BT-549 breast) | TGI (SK-MEL-28 melanoma) | TGI (U251 CNS) | TGI (KM12 colon) | TGI (MOLT-4 leukemia) | TGI (OVCAR-5 ovarian) | TGI (RXF 393 renal) | TGI (PC-3 prostate) | TGI (UO-31 renal) | TGI (LOX IMVI melanoma) | TGI (MDA-N) | TGI (K-562 leukemia) | TGI (NCI/ADR-RES ovarian) | TGI (T-47D breast) | TGI (OVCAR-8 ovarian) | TGI (A549 NSCLC) | TGI (SF-268 CNS) | TGI (SK-OV-3 ovarian) | TGI (DU-145 prostate) | TGI (SF-295 CNS)
91.2 µM: TGI (SNB-75 CNS)
65.4 µM: TGI (HCT-15 colon)
inactive: GI50 (MDA-MB-435) 17.4 µM | GI50 (OVCAR-4 ovarian) 25 µM | GI50 (UACC-62 melanoma) 14 µM | GI50 (CCRF-CEM leukemia) 13.6 µM | GI50 (CAKI-1 renal) 14.7 µM | GI50 (HT29 colon) 554 nM | GI50 (ACHN renal) 7.12 µM | GI50 (BT-549 breast) 6.38 µM | GI50 (U251 CNS) 5.54 µM | GI50 (KM12 colon) 12.2 µM | GI50 (MOLT-4 leukemia) 26.8 µM | GI50 (HL-60(TB) leukemia) 10.4 µM | GI50 (NCI-H23 lung) 21 µM | GI50 (HS 578T breast) 25.5 µM | GI50 (RPMI-8226 leukemia) 3.81 µM | GI50 (LOX IMVI melanoma) 30.7 µM | GI50 (K-562 leukemia) 20.6 µM | GI50 (HCT-15 colon) 3.6 µM | GI50 (HOP-92 NSCLC) 3.29 µM | GI50 (SR leukemia) 5.21 µM | GI50 (OVCAR-8 ovarian) 31.6 µM | GI50 (NCI-H226 lung) 2910 nM | GI50 (A549 NSCLC) 11 µM | GI50 (SF-539 CNS) 16.8 µM | GI50 (SF-268 CNS) 17.1 µM | GI50 (IGROV1 ovarian) 2500 nM
17.5 µM: TGI (NCI-H226 lung)
77.6 µM: TGI (SF-539 CNS)
66.8 µM: TGI (SK-MEL-5 melanoma)
60.9 µM: TGI (UACC-257 melanoma)
21.7 µM: TGI (HCT-116 colon)
87.2 µM: TGI (HCC-2998 colon)
36.8 µM: TGI (SK-MEL-2 melanoma)
28.9 µM: TGI (IGROV1 ovarian)
98.2 µM: TGI (786-0 renal)
57.5 µM: TGI (NCI-H23 lung)
40.8 µM: TGI (SR leukemia)
89.6 µM: TGI (SN12C renal)
90 µM: TGI (TK-10 renal)
77.7 µM: TGI (HL-60(TB) leukemia)
